Test results reported in US4486419A, “5,2',3',4',4",6"-Hexadeoxykanamycin and its 1-N-acylated derivative” (Zaidan Hojin Biseibutsu Kagaku Kenkyu Kai, priority 1982, dated 1984).
Values after ≈ are worked out from the molar mass of the structure shown.

Legend:
[1] = system: Pseudomonas aeruginosa B-13; format: cell-based; settings: B13, nutrient agar, 37° C., 18 hours, read-out: MIC
Escherichia coli W677 = format: cell-based; settings: nutrient agar, 37° C., 18 hours
Providencia 2991 = format: cell-based; settings: nutrient agar, 37° C., 18 hours
Bacillus anthracis = experiment: microbe, parasite or virus in culture; format: cell-based; settings: 18 h
[2] = system: Escherichia coli K-12 J5R 11-2; format: cell-based; settings: K12J5R112, nutrient agar, 37° C., 18 hours
Proteus rettgeri GN466 = format: cell-based; settings: Providencia rettgeri, nutrient agar, 37° C., 18 hours
[3] = system: Pseudomonas aeruginosa TI-13; format: cell-based; settings: TI13, nutrient agar, 37° C., 18 hours
[4] = system: Staphylococcus aureus Ap01; format: cell-based; settings: nutrient agar, 37° C., 18 hours
[5] = system: Escherichia coli K-12 C 600R135; experiment: microbe, parasite or virus in culture; format: cell-based; settings: K12C600R135, 18 h
[6] = system: Salmonella enteritidis 1891; format: cell-based; settings: Salmonella enterica, nutrient agar, 37° C., 18 hours
Escherichia coli NIHJ = format: cell-based; settings: nutrient agar, 37° C., 18 hours
[7] = system: Staphylococcus epidermidis 109; format: cell-based; settings: nutrient agar, 37° C., 18 hours
[8] = system: Shigella flexneri 4b JS11811; format: cell-based; settings: 4BJS11811, nutrient agar, 37° C., 18 hours
[9] = system: Escherichia coli K-12 LA 290 R55; experiment: microbe, parasite or virus in culture; format: cell-based; settings: K12LA290R55, 18 h
[10] = system: Pseudomonas aeruginosa K-Ps102; format: cell-based; settings: KPS102, nutrient agar, 37° C., 18 hours, read-out: MIC
[11] = system: Pseudomonas aeruginosa No. 12; format: cell-based; settings: nutrient agar, 37° C., 18 hours
Proteus vulgaris OX19 = format: cell-based; settings: nutrient agar, 37° C., 18 hours
Serratia marcescens = experiment: microbe, parasite or virus in culture; settings: 18 h
Description: (§1) Thus, the minimum inhibitory concentrations (mcg/ml) of the hexadeoxykanamycin and of the hexadeoxyamikacin according to this invention against various microorganisms were determined according to serial dilution method on a nutrient agar medium at 37° C., the estimation being made after 18 hours incubation. For comparison purpose, the minimum inhibitory concentrations of amikacin were also determined in the same manner as stated above.

[12] = system: Corynebacterium bovis 1810; experiment: microbe, parasite or virus in culture; settings: Corynebacterium bovis, 1810, 18 h
Description: as §1

[13] = system: Pseudomonas aeruginosa PST1; format: cell-based; settings: nutrient agar, 37° C., 18 hours
[14] = system: Escherichia coli K-12 R 388; format: cell-based; settings: K12R388, 18 h
Providencia Pv 16 = format: cell-based; settings: PV16, nutrient agar, 37° C., 18 hours
[15] = system: Mycobacterium smegmatis ATCC 607; format: cell-based; settings: Mycolicibacterium smegmatis, ATCC607; nutrient agar, 37° C., 18 hours
Escherichia coli K-12 = format: cell-based; settings: K12, nutrient agar, 37° C., 18 hours
[16] = system: Pseudomonas aeruginosa 99; format: cell-based; settings: Pseudomonas aeruginosa, 99; nutrient agar, 37° C., 18 hours; read-out: MIC
[17] = system: Pseudomonas aeruginosa 21-75; format: cell-based; settings: 2175, nutrient agar, 37° C., 18 hours
[18] = system: Pseudomonas aeruginosa A3; format: cell-based; settings: A3, nutrient agar, 37° C., 18 hours, read-out: MIC
[19] = system: Escherichia coli K-12 ML 1410 R81; experiment: microbe, parasite or virus in culture; format: cell-based; settings: 18 h
[20] = system: Pseudomonas aeruginosa GN315; format: cell-based; settings: nutrient agar, 37° C., 18 hours
[21] = system: Pseudomonas aeruginosa ROS134/PU21; format: cell-based; settings: ROS134/PU21, 18 h
[22] = system: Staphylococcus aureus Smith; format: cell-based; settings: nutrient agar, 37° C., 18 hours
Serratia SOU = format: cell-based; settings: nutrient agar, 37° C., 18 hours
[23] = system: Escherichia coli K-12 LA 290 R64; experiment: microbe, parasite or virus in culture; format: cell-based; settings: K12LA290R64, 18 h
[24] = system: Staphylococcus aureus FDA 209P; format: cell-based; settings: FDA209P, nutrient agar, 37° C., 18 hours
Proteus rettgeri GN311 = format: cell-based; settings: Providencia rettgeri, nutrient agar, 37° C., 18 hours
Shigella sonnei JS11746 = format: cell-based; settings: nutrient agar, 37° C., 18 hours
[25] = system: Escherichia coli JR66/W677; format: cell-based; settings: JR66/W677, 18 h
[26] = system: Bacillus subtilis PCI 219; format: cell-based; settings: PCI219, nutrient agar, 37° C., 18 hours
[27] = system: Klebsiella pneumoniae 22 #3038; format: cell-based; settings: nutrient agar, 37° C., 18 hours
Salmonella typhi T-63 = format: cell-based; settings: Salmonella enterica, 18 h
[28] = system: Pseudomonas aeruginosa H11; format: cell-based; settings: nutrient agar, 37° C., 18 hours
[29] = system: Bacillus subtilis NRRL B-558; format: cell-based; settings: NRRLB558, nutrient agar, 37° C., 18 hours
[30] = system: Pseudomonas aeruginosa H9; format: cell-based; settings: H9, nutrient agar, 37° C., 18 hours, read-out: MIC

## NCC[C@H](O)C(=O)N[C@@H]1C[C@H](N)[C@@H](O[C@H]2O[C@H](CN)[C@@H](O)[C@H](O)[C@H]2O)[C@H](O)[C@H]1O[C@H]1O[C@H](CO)[C@@H](O)[C@H](N)[C@H]1O [Amikacin, 1-N-[(S)-4-amino-2-hydroxybutyryl]kanamycin A, reference compound]
[1]
  MIC: 6.25 µg/mL (≈ 10.7 µM)
Escherichia coli W677
  MIC: 0.78 µg/mL (≈ 1.33 µM)
Providencia 2991
  MIC: 1.56 µg/mL (≈ 2.66 µM)
Bacillus anthracis
  MIC: 0.78 µg/mL (≈ 1.33 µM)
[2]
  MIC: 1.56 µg/mL (≈ 2.66 µM)
Proteus rettgeri GN466
  MIC: 0.78 µg/mL (≈ 1.33 µM)
[3]
  MIC: 3.13 µg/mL (≈ 5.34 µM)
[4]
  MIC: 1.56 µg/mL (≈ 2.66 µM)
[5]
  MIC: 0.78 µg/mL (≈ 1.33 µM)
[6]
  MIC: 1.56 µg/mL (≈ 2.66 µM)
Escherichia coli NIHJ
  MIC: 1.56 µg/mL (≈ 2.66 µM)
[7]
  MIC: 3.13 µg/mL (≈ 5.34 µM)
[8]
  MIC: 3.13 µg/mL (≈ 5.34 µM)
[9]
  MIC: 1.56 µg/mL (≈ 2.66 µM)
[10]
  MIC: 6.25 µg/mL (≈ 10.7 µM)
[11]
  MIC: 3.13 µg/mL (≈ 5.34 µM)
Proteus vulgaris OX19
  MIC: 1.56 µg/mL (≈ 2.66 µM)
Serratia marcescens
  MIC: 1.56 µg/mL (≈ 2.66 µM)
[12]
  MIC: 1.56 µg/mL (≈ 2.66 µM)
[13]
  MIC: 12.5 µg/mL (≈ 21.3 µM)
[14]
  MIC: 0.39 µg/mL (≈ 0.666 µM)
Providencia Pv 16
  MIC: 1.56 µg/mL (≈ 2.66 µM)
[15]
  MIC: 0.78 µg/mL (≈ 1.33 µM)
Escherichia coli K-12
  MIC: 0.39 µg/mL (≈ 0.666 µM)
[16]
  MIC: 6.25 µg/mL (≈ 10.7 µM)
[17]
  MIC: 12.5 µg/mL (≈ 21.3 µM)
[18]
  MIC: < 0.2 µg/mL
[19]
  MIC: 1.56 µg/mL (≈ 2.66 µM)
[20]
  MIC: 25 µg/mL (≈ 42.7 µM)
[21]
  MIC: 100 µg/mL (≈ 171 µM)
[22]
  MIC: 0.39 µg/mL (≈ 0.666 µM)
Serratia SOU
  MIC: 25 µg/mL (≈ 42.7 µM)
[23]
  MIC: 1.56 µg/mL (≈ 2.66 µM)
[24]
  MIC: 0.78 µg/mL (≈ 1.33 µM)
Proteus rettgeri GN311
  MIC: 0.39 µg/mL (≈ 0.666 µM)
Shigella sonnei JS11746
  MIC: 3.13 µg/mL (≈ 5.34 µM)
[25]
  MIC: 3.13 µg/mL (≈ 5.34 µM)
[26]
  MIC: 0.39 µg/mL (≈ 0.666 µM)
[27]
  MIC: 3.13 µg/mL (≈ 5.34 µM)
Salmonella typhi T-63
  MIC: 0.39 µg/mL (≈ 0.666 µM)
[28]
  MIC: 12.5 µg/mL (≈ 21.3 µM)
[29]
  MIC: 0.39 µg/mL (≈ 0.666 µM)
[30]
  MIC: 6.25 µg/mL (≈ 10.7 µM)
